In PMC7101355, “Activation and self-inactivation mechanisms of the cyclic oligoadenylate-dependent CRISPR ribonuclease Csm6” (Nature Communications, 2020):

Assays:
[1] = molecular target: T1, EiCsm6 (Enterococcus italicus, UniProt E6LHV2); assay: LC-MS degradation assay; RNaseAlert activation assay; format: biochemical; settings: 25 uM cA6 and 25 uM protein, 37 °C, 1 h; also allosteric activator at CARF domain
T1 construct: gene csm6; recombinant from E. coli BL21 Star (DE3); N-terminal His6-TEV tag cut; full gene; homodimer, ligand site at the CARF domain interface
T1 sequence (E6LHV2 1-430): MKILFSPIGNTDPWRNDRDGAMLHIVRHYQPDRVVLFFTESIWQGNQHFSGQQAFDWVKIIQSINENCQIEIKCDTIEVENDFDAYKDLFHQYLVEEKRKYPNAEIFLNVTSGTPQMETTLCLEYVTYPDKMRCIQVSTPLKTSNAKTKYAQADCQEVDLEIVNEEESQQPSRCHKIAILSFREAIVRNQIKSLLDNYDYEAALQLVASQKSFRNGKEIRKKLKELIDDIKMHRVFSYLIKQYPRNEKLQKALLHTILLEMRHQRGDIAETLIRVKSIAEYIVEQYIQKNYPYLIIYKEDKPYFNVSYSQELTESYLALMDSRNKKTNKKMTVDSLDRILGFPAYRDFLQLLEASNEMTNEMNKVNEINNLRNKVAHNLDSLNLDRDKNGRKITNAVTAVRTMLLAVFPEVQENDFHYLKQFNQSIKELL

[2] = molecular target: T1, EiCsm6; assay: fluorogenic RNaseAlert ribonuclease assay, initial velocities, variable Hill fit; format: biochemical; settings: 5 nM EiCsm6, 10 mM HEPES pH 7.5, 50 mM KCl; allosteric activator at CARF domain, read-out HEPN RNase
[3] = molecular target: T1, EiCsm6; assay: X-ray crystal structure of the complex, […] Å; format: binding; settings: bound at the CARF domain dimer interface, one cFA6 per homodimer
[4] = molecular target: the molecule itself; assay: crystal structure; EiCsm6 (120 uM) co-crystallised with the cA6 mimic cFA6 (288 uM); 100 mM HEPES pH 7.5, 1.6 M ammonium sulfate, 25 mM lithium perchlorate; space group P1, four homodimers in the asymmetric unit; 2.4 A

Nc1ncnc2c1ncn2[C@@H]1O[C@@H]2COP(=O)(O)O[C@H]3[C@@H](O)[C@H](n4cnc5c(N)ncnc54)O[C@@H]3COP(=O)(O)O[C@H]3[C@@H](O)[C@H](n4cnc5c(N)ncnc54)O[C@@H]3COP(=O)(O)O[C@H]3[C@@H](O)[C@H](n4cnc5c(N)ncnc54)O[C@@H]3COP(=O)(O)O[C@H]3[C@@H](O)[C@H](n4cnc5c(N)ncnc54)O[C@@H]3COP(=O)(O)O[C@H]3[C@@H](O)[C@H](n4cnc5c(N)ncnc54)O[C@@H]3COP(=O)(O)O[C@H]2[C@H]1O [cA6]
LC-MS degradation assay; RNaseAlert activation assay [1]: revealing that cA6 was efficiently degraded to yield a mixture of products

Nc1ncnc2c1ncn2[C@@H]1O[C@@H]2COP(=O)(O)O[C@H]3[C@@H](F)[C@H](n4cnc5c(N)ncnc54)O[C@@H]3COP(=O)(O)O[C@H]3[C@@H](F)[C@H](n4cnc5c(N)ncnc54)O[C@@H]3COP(=O)(O)O[C@H]3[C@@H](F)[C@H](n4cnc5c(N)ncnc54)O[C@@H]3COP(=O)(O)O[C@H]3[C@@H](F)[C@H](n4cnc5c(N)ncnc54)O[C@@H]3COP(=O)(O)O[C@H]3[C@@H](F)[C@H](n4cnc5c(N)ncnc54)O[C@@H]3COP(=O)(O)O[C@H]2[C@H]1F [cFA6, 2’-,2’’-,2’’’,2’’’’,2’’’’’,2’’’’’’-hexadeoxy-2’-,2’’,2’’’,2’’’’,2’’’’’,2’’’’’’-hexafluoro-cyclic hexaadenosine monophosphate]
EC50 [2]: 170 nM
X-ray crystal structure of the complex, 2.4 Å [3]: we co-crystallized EiCsm6 with cFA6 and determined the structure of the complex

B1: Enterococcus italicus Csm6 (EiCsm6), wild type (enzyme)
chain: T1 sequence (E6LHV2 1-430)
notes: Csm6 ribonuclease (CARF and HEPN domains) of the type III CRISPR-Cas system of Enterococcus italicus DSM-15952; gene amplified from genomic DNA; Cloned into the 1B vector (Addgene 29653): N-terminal hexahistidine tag followed by a TEV site, removed with TEV protease; Crystallised with the small-molecule ligand cFA6 (PDB 6TUG) or with cA6; also called WT EiCsm6; source: E. coli BL21 Star (DE3), …
stoichiometry N [4]: 2
